Legend:
Candida krusei CCMM L10 = test: Drop plate method assay, antifungal activity; format: cell-based; design: key: high activity (++); Medium activity (+); no activity(-); conditions: 10 µl of 1 mg/ml in DMSO dropped on seeded agar plate, read after approximately 10-16 h
Description: (§1) A drop plate method assay (Alajlani, M.; et al. Chromatographia 2016, 79, 1527-1532.) with modification was performed to detect the antimicrobial and antifungal activity against the Gram positive bacteria Arthrobacter aurescens and the yeast strain Candida krusei. All compounds were dissolved in DMSO to a concentration of 1 mg/ml. Using sterile micropipette 10 µl of each compound was directly but gently dropped over seeded agar plate with test organism. The liquid was allowed to diffuse before the plate was inverted and incubated. The growth conditions for every strain was considered. The results were noted when a lawn of the indicator organism appeared on the plate (approximately 10-16 h). The magnitude of activity was noted as high activity (++), Medium activity (+),and no activity(-). Table 2: Antimicrobial and antifungal activities of compounds were detected over the test organisms.

[1] = system: Arthrobacter aurescens DSM20116; test: Drop plate method assay, antimicrobial activity; format: cell-based; design: key: high activity (++); Medium activity (+); no activity(-); conditions: 10 µl of 1 mg/ml in DMSO dropped on seeded agar plate, read after approximately 10-16 h
Description: as §1

L-6 cells = test: cells; format: cell-based, rat; conditions: for IC50: Rattus norvegicus, L6, cytotoxicity against L-6 cells, 70 h + 2 h incubation with Alamar Blue
Description: Assays were performed in 96-well microtiter plates, each well containing 100 µl of RPMI 1640 medium supplemented with 1% L-glutamine (200 mM) and 10% fetal bovine serum, and 4000 L-6 cell, a primary cell line derived from rat skeletal myoblasts (Page, C.; et al. J. Oncol. 1993, 3, 473-476; Ahmed, S. A.; Gogal, R. M.; et al. J. Immunol. Methods 1994, 170 211-224).
Serial drug dilutions of eleven 3-fold dilution steps covering a range from 100 to 0.002 µg/ml were prepared. After 70 hours of incubation the plates were inspected under an inverted microscope to assure growth of the controls and sterile conditions. 10 µl of Alamar Blue was then added to each well and the plates incubated for another 2 hours. Then the plates were read with a Spectramax Gemini XS microplate fluorometer (Molecular Devices Cooperation, USA) using an excitation wave length of 536 nm and an emission wave length of 588 nm. The IC50 values were calculated by linear regression (Huber, W.; et al. Acta Trop. 1993, 55, 257-261.) from the sigmoidal dose inhibition curves using SoftmaxPro software (Molecular Devices Cooperation, USA). Podophyllotoxin (Sigma P4405) was used as control. Table 1: Results for cytotoxicity against L-6 cells expressed as IC50 values (µM)

Row | SMILES | magnitude of activity, Candida krusei CCMM L10 (Candida krusei CCMM L10) | magnitude of activity, Arthrobacter aurescens DSM20116 [1] | IC50 (L-6 cells) | IC50 for cytotoxicity relative to the investigated concentration (L-6 cells)
1 | CC(C)=C/C(=C\C=NS(=O)(=O)c1ccc(Cl)cc1)N1CCCCC1 [Example 5, (2E)-4-Chloro-N-[5-methyl-3-(piperidin-1-yl)hexa-2,4-dien-1-ylidene]benzenesulfonamide] | + | ++ | – | –
2 | CC(C)=C/C(=C\C=NS(=O)(=O)c1ccccc1)N(C)C [Example 7, (2E)-N-(3-Dimethylamino-5-methylhexa-2,4-dien-1-ylidene)benzenesulfonamide] | + | ++ | – | –
3 | CC(C)=C/C(=C\C=NS(C)(=O)=O)N1CCCCC1 [Example 10, (2E)-N-[5-Methyl-3-(piperidin-1-yl)hexa-2,4-dien-1-ylidene]methanesulfonamide] | + | ++ | – | –
4 | CC(C)=C/C(=C\C=NS(=O)(=O)c1ccc(C)cc1)N1CCCC1 [Example 8, (2E)-4-Methyl-N-[5-methyl-3-(pyrrolidin-1-yl)hexa-2,4-dien-1-ylidene]benzenesulfonamide] | + | ++ | – | –
5 | CC(C)=C/C(=C\C=NS(=O)(=O)c1ccccc1)N1CCCC1 [Example 6, 2(E)-N-[5-Methyl-3-(pyrrolidin-1-yl)hexa-2,4-dien-1-ylidene]benzenesulfonamide] | + | ++ | – | –
6 | CC(C)=C/C(=C\C=NS(=O)(=O)c1ccc([N+](=O)[O-])cc1)N1CCCCC1 [Example 2, (2E)-N-{5-Methyl-1-[(4-nitrophenyl)sulfonylimino]hexa-2,4-dien-3-yl}piperidin-1-ium chloride] | – | – | 206 µM | –
7 | CC(C)=C/C(=C\C=NS(=O)(=O)c1ccc([N+](=O)[O-])cc1)N1CCCC1.Cl [Example 3, (2E)-N-{5-Methyl-1-[(4-nitrophenyl)sulfonylimino]hexa-2,4-dien-3-yl}pyrrolidine-1-ium chloride] | + | ++ | 250 µM | 100 times

Source: EP4043434A1, “NOVEL SULFONYLIMINES” (Karl-Franzens-Universität Graz, priority 2021, dated 2022)
